Source: US20230127839A1, “COMPOUNDS AND COMPOSITIONS FOR TREATING CONDITIONS ASSOCIATED WITH STING ACTIVITY” (IFM Due, Inc., priority 2019, published 2023)

target: T1, hSTING (Homo sapiens, UniProt Q86WV6, G230A/H232R/R293Q/R71H); experiment: STING reporter assay (luciferase) in THP1-Dual KO-IFNAR2 cells stimulated with 2'3'cGAMP; type: cell-based; conditions: 2'3'cGAMP 15 μM, 24 h, luciferase reporter activity
T1 construct: host or cells: THP1-Dual KO-IFNAR2 cells
Outline: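 THP1-Dual KO-IFNAR2 cells (2×10E6 cells/mL) exposed to compounds at 0.0017-100 μM final, then stimulated with 2′3′cGAMP (15 μM final) delivered by Lipofectamine 2000 transfection. After 24 h at 37° C, secreted luciferase in supernatant read by QUANTI-Luc luminescence; EC50 calculated.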

T1 sequence (Q86WV6 whole entry R71H/G230A/H232R/R293Q): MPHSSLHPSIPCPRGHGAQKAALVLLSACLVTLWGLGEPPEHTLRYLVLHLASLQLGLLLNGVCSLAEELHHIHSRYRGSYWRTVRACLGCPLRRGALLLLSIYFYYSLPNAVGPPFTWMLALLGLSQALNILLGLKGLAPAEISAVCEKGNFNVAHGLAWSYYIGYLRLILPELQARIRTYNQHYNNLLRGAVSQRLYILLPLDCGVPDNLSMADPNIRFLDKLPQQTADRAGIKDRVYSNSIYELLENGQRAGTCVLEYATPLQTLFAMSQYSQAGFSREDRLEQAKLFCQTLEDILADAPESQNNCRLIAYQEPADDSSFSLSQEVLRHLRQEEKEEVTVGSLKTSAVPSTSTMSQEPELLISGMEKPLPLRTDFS

EC50 [nM] | SMILES
5000 to 100000 | C[C@@H]1CN(c2ncc(NC(=O)Nc3c[nH]c4ccc(Cl)cc34)cc2Cl)C[C@H](C)N1 [Compound 288, 1-(5-chloro-1H-indol-3-yl)-3-(5-chloro-6-(cis-3,5-dimethylpiperazin-1-yl)pyridin-3-yl)urea]
5000 to 100000 | C[C@H]1CN(c2ncc(NC(=O)Nc3c[nH]c4ccc(Cl)cc34)cc2Cl)C[C@H](C)N1 [Compound 289, 1-(5-chloro-1H-indol-3-yl)-3-(5-chloro-6-((3S,5S)-3,5-dimethylpiperazin-1-yl)pyridin-3-yl)urea]
40 to 200 | CC1(C)CN(c2ncc(NC(=O)Nc3c[nH]c4cc(F)c(F)cc34)cc2F)CCO1 [Compound 290, 1-(5,6-difluoro-1H-indol-3-yl)-3-(6-(2,2-dimethylmorpholino)-5-fluoropyridin-3-yl)urea]
1000 to 5000 | C[C@@H]1CN(c2ncc(NC(=O)Nc3c[nH]c4ccc(Cl)cc34)cc2Cl)C[C@@H](C)N1 [Compound 291, 1-(5-chloro-1H-indol-3-yl)-3-(5-chloro-6-((3R,5R)-3,5-dimethylpiperazin-1-yl)pyridin-3-yl)urea]
40 to 200 | O=C(Nc1cnc(N2CCC(F)(F)CC2)c(F)c1)Nc1c[nH]c2ccc(Cl)cc12 [Compound 292, 1-(5-chloro-1H-indol-3-yl)-3-(6-(4,4-difluoropiperidin-1-yl)-5-fluoropyridin-3-yl)urea]
40 to 200 | C[C@@H]1CN(c2ncc(NC(=O)Nc3c[nH]c4ccc(Cl)cc34)cc2Cl)C[C@H](C)O1 [Compound 293, 1-(5-chloro-1H-indol-3-yl)-3-(5-chloro-6-((2S,6R)-2,6-dimethylmorpholino)pyridin-3-yl)urea]
40 to 200 | CC1(C)OCC(c2ncc(NC(=O)Nc3c[nH]c4ccc(Cl)cc34)cc2Br)CO1 [Compound 294, 1-(5-bromo-6-(2,2-dimethyl-1,3-dioxan-5-yl)pyridin-3-yl)-3-(5-chloro-1H-indol-3-yl)urea]
40 to 200 | O=C(Nc1cnc(C2CCC(F)(F)CC2)c(F)c1)Nc1c[nH]c2ccc(Cl)cc12 [Compound 295, 1-(5-chloro-1H-indol-3-yl)-3-(6-(4,4-difluorocyclohexyl)-5-fluoropyridin-3-yl)urea]
1000 to 5000 | C[C@H]1CN(c2ncc(NC(=O)Nc3c[nH]c4ccc(Cl)cc34)cc2Cl)CCN1 [Compound 296, (S)-1-(5-chloro-1H-indol-3-yl)-3-(5-chloro-6-(3-methylpiperazin-1-yl)pyridin-3-yl)urea]
40 to 200 | O=C(Nc1cnc(C2CCN(CC(F)(F)F)CC2)c(Cl)c1)Nc1c[nH]c2ccc(Cl)cc12 [Compound 297, 1-(5-chloro-1H-indol-3-yl)-3-(5-chloro-6-(1-(2,2,2-trifluoroethyl)piperidin-4-yl)pyridin-3-yl)urea]
40 to 200 | CC1(C)CN(c2ncc(NC(=O)Nc3c[nH]c4ccc(Cl)cc34)cc2Cl)CCO1 [Compound 298, 1-(5-chloro-1H-indol-3-yl)-3-(5-chloro-6-(2,2-dimethylmorpholino)pyridin-3-yl)urea]
40 to 200 | O=C(Nc1ccc(C2CCC2)cc1)Nc1c[nH]c2ccc(Cl)cc12 [Compound 300, 1-(5-chloro-1H-indol-3-yl)-3-(4-cyclobutylphenyl)urea]
